From patent US20140303182A1, “PHARMACEUTICALLY ACCEPTABLE SALTS OF QUINOLINONE COMPOUNDS HAVING IMPROVED PHARMACEUTICAL PROPERTIES” (NOVARTIS AG, priority 2003, published 2014)
Several values for one entry are separate records, joined by “and”; a condition that tells them apart may be missing. Equal values may be shown once. Where a name gives a salt, the structure may show the parent alone. Read-outs that look alike come from different tables or passages of the source.

Legend:
[1] = Aqueous equilibrium solubility and pH at saturation; format: physicochemical; details: water, 24 hours at 22° C., HPLC, free base equivalent
Crystallinity by XRPD = format: physicochemical
Experimental: XRPD analyses were carried out on a Shimadzu XRD-6000 X-ray powder diffractometer using Cu Kα radiation. The instrument is equipped with a fine focus X-ray tube. The tube voltage and amperage were set to 40 kV and 40 mA, respectively. The divergence and scattering slits were set at 1° and the receiving slit was set at 0.15 mm. Diffracted radiation was detected by a NaI scintillation detector. A theta-two theta continuous scan at 3°/minute (0.4 seconds/0.02° step) from […] was used.

[2] = Chemical stability, solid state (HPLC); details: solid state
[3] = Crystal morphology, polarized light microscope; format: physicochemical; details: 10× and 40× magnification
[4] = Hygroscopicity, moisture sorption/desorption; format: physicochemical
Compaction studies = format: physicochemical; details: 200 mg at 5000 psi; for Tensile strength of compact: SC = Strong Cobb
[5] = Chemical stability, solution state (HPLC); format: physicochemical
[6] = 30° C./60% Relative humidity, listed as Sulphate
[7] = 40° C./70% Relative humidity, listed as Sulphate

In the case of `CN1CCN(c2ccc3nc(-c4c(N)c5c(F)cccc5[nH]c4=O)[nH]c3c2)CC1` [Nitrate, 4-Amino-5-fluoro-3-[6-(4-methylpiperazin-1-yl)-1H-benzimidazol-2-yl]-1H-quinolin-2-one], the Solubility [1] is reported as 6.7 mg FB/mL.
In the case of `CN1CCN(c2ccc3nc(-c4c(N)c5c(F)cccc5[nH]c4=O)[nH]c3c2)CC1` [Mono-acetate, 4-Amino-5-fluoro-3-[6-(4-methylpiperazin-1-yl)-1H-benzimidazol-2-yl]-1H-quinolin-2-one], the Crystallinity (Crystallinity by XRPD) is reported as “amorphous”, the Crystallinity (Crystallinity by XRPD; listed as Acetate) is reported as “mixture of crystalline” and the Crystallinity (Crystallinity by XRPD; listed as acetate salt) is reported as “amorphous”. For the same compound, the Solubility [1] was 84.4 mg FB/mL and the Solubility ([1]; listed as Acetate) was 15.4 mg FB/mL.
For `CN1CCN(c2ccc3nc(-c4c(N)c5c(F)cccc5[nH]c4=O)[nH]c3c2)CC1` [Bis-Lactate, 4-Amino-5-fluoro-3-[6-(4-methylpiperazin-1-yl)-1H-benzimidazol-2-yl]-1H-quinolin-2-one], the “Area % at Time = 0” value ([2]; 30° C./60% Relative humidity) was 98.71 Area %, the “Area % at Time = 6 weeks” value ([2]; 30° C./60% Relative humidity) was 98.64 Area % and the “Area % at Time = 0” value ([2]; 40° C./70% Relative humidity) was 98.99 Area %. The “Area % at Time = 6 weeks” value ([2]; 40° C./70% Relative humidity) was 97.92 Area %, the Crystallinity (Crystallinity by XRPD) was “mixture of crystalline” and the Crystallinity (Crystallinity by XRPD; listed as bis-lactate) was “mixture of crystalline and amorphous material”. For the same compound, the Solubility [1] was 304 mg FB/mL.
Compound `CN1CCN(c2ccc3nc(-c4c(N)c5c(F)cccc5[nH]c4=O)[nH]c3c2)CC1` [Glycinate, 4-Amino-5-fluoro-3-[6-(4-methylpiperazin-1-yl)-1H-benzimidazol-2-yl]-1H-quinolin-2-one] has a Solubility [1] of 0.0638 mg FB/mL.
With `CN1CCN(c2ccc3nc(-c4c(N)c5c(F)cccc5[nH]c4=O)[nH]c3c2)CC1` [Mono-malate, 4-Amino-5-fluoro-3-[6-(4-methylpiperazin-1-yl)-1H-benzimidazol-2-yl]-1H-quinolin-2-one] the Morphology [3] was “needle”, the Crystallinity (Crystallinity by XRPD) was “crystalline” and the Crystallinity (Crystallinity by XRPD; listed as L-Malate) was “mixture of crystalline”. For the same compound, the Crystallinity (Crystallinity by XRPD; listed as L-malate) was “mixture of crystalline and amorphous material”, the “hygroscopicity (verdict)” value [4] was “non-hygroscopic” and the Solubility ([1]; listed as L-Malate) was 69 mg FB/mL. The “Forms Compact” value (Compaction studies) was “form compacts”, the “Area % at Time = 0” value ([5]; 5° C.) was 98.70 Area % and the “Area % at Time = 7 days” value ([5]; 5° C.) was 98.69 Area %. The “Area % at Time = 0” value ([5]; ambient temperature) was 98.70 Area % and the “Area % at Time = 7 days” value ([5]; ambient temperature) was 98.65 Area %.
For `CN1CCN(c2ccc3nc(-c4c(N)c5c(F)cccc5[nH]c4=O)[nH]c3c2)CC1` [Sulfate, 4-Amino-5-fluoro-3-[6-(4-methylpiperazin-1-yl)-1H-benzimidazol-2-yl]-1H-quinolin-2-one], the “Area % at Time = 0” value [2, 6] was 98.75 Area %, the “Area % at Time = 6 weeks” value [2, 6] was 99.39 Area % and the “Area % at Time = 0” value [2, 7] was 98.96 Area %. For the same compound, the “Area % at Time = 6 weeks” value [2, 7] was 98.9 Area %, the Crystallinity (Crystallinity by XRPD) was “mixture of crystalline” and the Crystallinity (Crystallinity by XRPD; listed as sulfate) was “mixture of crystalline and amorphous material”. It also gave a Solubility [1] of 19.7 mg FB/mL.
For `CN1CCN(c2ccc3nc(-c4c(N)c5c(F)cccc5[nH]c4=O)[nH]c3c2)CC1` [Bis-mesylate, 4-Amino-5-fluoro-3-[6-(4-methylpiperazin-1-yl)-1H-benzimidazol-2-yl]-1H-quinolin-2-one], the “Area % at Time = 0” value ([2]; 30° C./60% Relative humidity) was 99.01 Area %, the “Area % at Time = 6 weeks” value ([2]; 30° C./60% Relative humidity) was 98.12 Area % and the “Area % at Time = 0” value ([2]; 40° C./70% Relative humidity) was 98.78 Area %. The “Area % at Time = 6 weeks” value ([2]; 40° C./70% Relative humidity) was 98.35 Area %, the Crystallinity (Crystallinity by XRPD) was “mixture of crystalline” and the Crystallinity (Crystallinity by XRPD; listed as bis-mesylate) was “crystalline”.
In the case of `CN1CCN(c2ccc3nc(-c4c(N)c5c(F)cccc5[nH]c4=O)[nH]c3c2)CC1` [Hemi-malate, 4-Amino-5-fluoro-3-[6-(4-methylpiperazin-1-yl)-1H-benzimidazol-2-yl]-1H-quinolin-2-one], the Crystallinity (Crystallinity by XRPD) is reported as “crystalline” and the Solubility [1] is reported as 6.39 mg FB/mL.
In the case of `CN1CCN(c2ccc3nc(-c4c(N)c5c(F)cccc5[nH]c4=O)[nH]c3c2)CC1` [Mono-citrate, 4-Amino-5-fluoro-3-[6-(4-methylpiperazin-1-yl)-1H-benzimidazol-2-yl]-1H-quinolin-2-one], the Crystallinity (Crystallinity by XRPD) is reported as “crystalline”, the Crystallinity (Crystallinity by XRPD; listed as citrate) is reported as “crystalline” and the Solubility [1] is reported as 0.456 mg FB/mL. For the same compound, the Solubility ([1]; listed as Citrate) was 27.2 mg FB/mL.
In the case of `CN1CCN(c2ccc3nc(-c4c(N)c5c(F)cccc5[nH]c4=O)[nH]c3c2)CC1` [Mono-mesylate, 4-Amino-5-fluoro-3-[6-(4-methylpiperazin-1-yl)-1H-benzimidazol-2-yl]-1H-quinolin-2-one], the Morphology [3] is reported as “varies from plate to needle”, the Morphology ([3]; listed as Mesylate-trial 1) is reported as “Plate” and the Morphology ([3]; listed as Mesylate-trial 2) is reported as “Needle”. The “Area % at Time = 0” value ([2]; 30° C./60% Relative humidity) was 98.80 Area %, the “Area % at Time = 6 weeks” value ([2]; 30° C./60% Relative humidity) was 98.68 Area % and the “Area % at Time = 0” value ([2]; 40° C./70% Relative humidity) was 98.89 Area %. For the same compound, the “Area % at Time = 6 weeks” value ([2]; 40° C./70% Relative humidity) was 98.7 Area %, the Crystallinity (Crystallinity by XRPD) was “crystalline” and the Crystallinity (Crystallinity by XRPD; listed as Mesylate) was “mixture of crystalline”. The Crystallinity (Crystallinity by XRPD; listed as mesylate) was “crystalline”, the Crystallinity (Crystallinity by XRPD; listed as mono-mesylate) was “mixture of crystalline and amorphous material” and the Solubility [1] was 185 mg FB/mL and 180 mg FB/mL. The Solubility ([1]; listed as Mesylate) was 22.3 mg FB/mL, the “Forms Compact” value (Compaction studies) was “form compacts” and the “Tensile strength of compact” value (Compaction studies; listed as Mesylate-trial 1) was 6.9 SC. For the same compound, the “Tensile strength of compact” value (Compaction studies; listed as Mesylate-trial 2) was 17.9 SC, the “Forms Compact” value (Compaction studies; listed as Mesylate-trial 1) was “Yes” and the Thickness of compact (Compaction studies; listed as Mesylate-trial 1) was 2.77 mm. For the same compound, the “Forms Compact” value (Compaction studies; listed as Mesylate-trial 2) was “Yes”, the Thickness of compact (Compaction studies; listed as Mesylate-trial 2) was 2.87 mm and the “Area % at Time = 0” value ([5]; 5° C.) was 98.70 Area %. The “Area % at Time = 7 days” value ([5]; 5° C.) was 98.76 Area %, the “Area % at Time = 0” value ([5]; ambient temperature) was 98.70 Area % and the “Area % at Time = 7 days” value ([5]; ambient temperature) was 98.77 Area %.
For `CN1CCN(c2ccc3nc(-c4c(N)c5c(F)cccc5[nH]c4=O)[nH]c3c2)CC1` [BisHCl, 4-Amino-5-fluoro-3-[6-(4-methylpiperazin-1-yl)-1H-benzimidazol-2-yl]-1H-quinolin-2-one], the Solubility [1] was 42 mg FB/mL.
Work on `CN1CCN(c2ccc3nc(-c4c(N)c5c(F)cccc5[nH]c4=O)[nH]c3c2)CC1` [Bis-Glycinate, 4-Amino-5-fluoro-3-[6-(4-methylpiperazin-1-yl)-1H-benzimidazol-2-yl]-1H-quinolin-2-one] yielded a Solubility [1] of 0.11 mg FB/mL.
For `CN1CCN(c2ccc3nc(-c4c(N)c5c(F)cccc5[nH]c4=O)[nH]c3c2)CC1` [Hydrochloride, 4-Amino-5-fluoro-3-[6-(4-methylpiperazin-1-yl)-1H-benzimidazol-2-yl]-1H-quinolin-2-one], the Solubility [1] was 26.3 mg FB/mL.
For `CN1CCN(c2ccc3nc(-c4c(N)c5c(F)cccc5[nH]c4=O)[nH]c3c2)CC1` [Phosphate, 4-Amino-5-fluoro-3-[6-(4-methylpiperazin-1-yl)-1H-benzimidazol-2-yl]-1H-quinolin-2-one], the “Area % at Time = 0” value ([2]; 30° C./60% Relative humidity) was 98.47 Area %, the “Area % at Time = 6 weeks” value ([2]; 30° C./60% Relative humidity) was 99.28 Area % and the “Area % at Time = 0” value ([2]; 40° C./70% Relative humidity) was 98.84 Area %. The “Area % at Time = 6 weeks” value ([2]; 40° C./70% Relative humidity) was 98.86 Area %, the Crystallinity (Crystallinity by XRPD) was “mixture of crystalline” and the Crystallinity (Crystallinity by XRPD; listed as phosphate) was “mixture of crystalline and amorphous material”. It also gave a Solubility [1] of 13.8 mg FB/mL.
For `CN1CCN(c2ccc3nc(-c4c(N)c5c(F)cccc5[nH]c4=O)[nH]c3c2)CC1` [Bis-Acetate, 4-Amino-5-fluoro-3-[6-(4-methylpiperazin-1-yl)-1H-benzimidazol-2-yl]-1H-quinolin-2-one], the Crystallinity (Crystallinity by XRPD) was “mixture of crystalline”, the Crystallinity (Crystallinity by XRPD; listed as bis-acetate) was “mixture of crystalline and amorphous material” and the Solubility [1] was 31.9 mg FB/mL.
For `CN1CCN(c2ccc3nc(-c4c(N)c5c(F)cccc5[nH]c4=O)[nH]c3c2)CC1` [Maleate, 4-Amino-5-fluoro-3-[6-(4-methylpiperazin-1-yl)-1H-benzimidazol-2-yl]-1H-quinolin-2-one], the Solubility [1] was 0.866 mg FB/mL.
With `CN1CCN(c2ccc3nc(-c4c(N)c5c(F)cccc5[nH]c4=O)[nH]c3c2)CC1` [Mono-tartrate, 4-Amino-5-fluoro-3-[6-(4-methylpiperazin-1-yl)-1H-benzimidazol-2-yl]-1H-quinolin-2-one] the Crystallinity (Crystallinity by XRPD) was “crystalline”, the Crystallinity (Crystallinity by XRPD; listed as L-Tartrate) was “mixture of crystalline” and the Crystallinity (Crystallinity by XRPD; listed as L-tartrate) was “mixture of crystalline and amorphous material”. It also gave a Solubility ([1]; listed as L-Tartrate) of 103.4 mg FB/mL.
